Reference: patent US10300044B2, “Polymorphic forms of methyl((1S)-1-(((2S)-2-(5-(4′-(2-((2S)-1-((2S)-2-((methoxycarbonyl)amino)-3-methylbutanoyl)-2-pyrrolidinyl)-1H-imidazol-5-yl)-4-biphenylyl)-1H-imidazol-2-yl)-1-pyrrolidinyl)carbonyl)-2-methylpropyl)carbamate and salts thereof” (Cipla Limited, priority 2014, dated 2019)
Counter-ions that a name gives are not always drawn.

Assays:
[1] = N-1 versus N-2 crystalline dihydrochloride salts; cited from earlier work
Hygroscopicity = type: physicochemical

hygroscopicity (Hygroscopicity) | Structure (SMILES) | thermodynamic stability among polymorphs [1]
 | COC(=O)N[C@H](C(=O)N1CCC[C@H]1c1nc(-c2ccc(-c3ccc(-c4c[nH]c([C@@H]5CCCN5C(=O)[C@@H](NC(=O)OC)C(C)C)n4)cc3)cc2)c[nH]1)C(C)C [Form N-2, methyl((1S)-1-(((2S)-2-(5-(4′-(2-((2S)-1-((2S)-2-((methoxycarbonyl)amino)-3-methylbutanoyl)-2-pyrrolidinyl)-1H-imidazol-5-yl)-4-biphenylyl)-1H-imidazol-2-yl)-1-pyrrolidinyl)carbonyl)-2-methylpropyl) carbamate dihydrochloride] | thermodynamically most stable polymorph
substantially non-hygroscopic | COC(=O)N[C@H](C(=O)N1CCC[C@H]1c1ncc(-c2ccc(-c3ccc(-c4cnc([C@@H]5CCCN5C(=O)[C@@H](NC(=O)OC)C(C)C)[nH]4)cc3)cc2)[nH]1)C(C)C [Form A, methyl((1 S)-1-(((2S)-2-(5-(4′-(2-((2S)-1-((2S)-2-((methoxycarbonyl)amino)-3-methylbutanoyl)-2-pyrrolidinyl)-1H-imidazol-5-yl)-4-biphenylyl)-1H-imidazol-2-yl)-1-pyrrolidinyl)carbonyl)-2-methylpropyl)carbamate] | 
